Test results: PubChem BioAssay AID248 (DTP/NCI, 2004)
Values joined by “and” are separate entries in the source; they are usually repeats but may differ in a detail not shown here. Identical values can stand only once. Toxic doses and inconclusive results are not listed. Rule as the data show it: active = T/C of 150% or more; inactive = T/C below 125%.

System: L1210 leukemia ip in BDF1 mice, survival T/C
Experiment: NCI In Vivo Anticancer Drug Screen. Data for tumor model L1210 Leukemia (intraperitoneal) in B6D2F1 (BDF1) mice
Details: endpoint: mean survival time, higher = longer survival
Method in brief: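 Read-out is survival time, reported as the treated-group measurement over the vehicle-control measurement.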

[1] = dose: 100.0 mg/kg/injection, schedule: Q04DX003 (ip), vehicle: Klucel (hydroxypropylcellulose) (HPC)
[2] = dose: 200.0 mg/kg/injection, schedule: Q04DX003 (ip), vehicle: Klucel (hydroxypropylcellulose) (HPC)
[3] = dose: 400.0 mg/kg/injection, schedule: Q04DX003 (ip), vehicle: Klucel (hydroxypropylcellulose) (HPC)
[4] = dose: 100.0 mg/kg/injection, schedule: Q04DX002 (ip), vehicle: saline with Tween-80
[5] = dose: 100.0 mg/kg/injection, schedule: Q04DX003 (ip), vehicle: saline with Tween-80
[6] = dose: 200.0 mg/kg/injection, schedule: Q04DX002 (ip), vehicle: saline with Tween-80
[7] = dose: 200.0 mg/kg/injection, schedule: Q04DX003 (ip), vehicle: saline with Tween-80
[8] = dose: 400.0 mg/kg/injection, schedule: Q04DX002 (ip), vehicle: saline with Tween-80
[9] = dose: 400.0 mg/kg/injection, schedule: Q04DX003 (ip), vehicle: saline with Tween-80
[10] = dose: 100.0 mg/kg/injection, schedule: Q01DX009 (ip), vehicle: Klucel (hydroxypropylcellulose) (HPC)
[11] = dose: 100.0 mg/kg/injection, schedule: Q01DX009 (ip), vehicle: saline
[12] = dose: 200.0 mg/kg/injection, schedule: Q01DX009 (ip), vehicle: Klucel (hydroxypropylcellulose) (HPC)
[13] = dose: 200.0 mg/kg/injection, schedule: Q01DX009 (ip), vehicle: saline
[14] = dose: 400.0 mg/kg/injection, schedule: Q01DX009 (ip), vehicle: saline
[15] = dose: 100.0 mg/kg/injection, schedule: Q01DX001 (ip), vehicle: saline
[16] = dose: 100.0 mg/kg/injection, schedule: Q04DX003 (ip), vehicle: saline
[17] = dose: 200.0 mg/kg/injection, schedule: Q01DX001 (ip), vehicle: saline
[18] = dose: 200.0 mg/kg/injection, schedule: Q04DX003 (ip), vehicle: saline
[19] = dose: 400.0 mg/kg/injection, schedule: Q01DX001 (ip), vehicle: saline
[20] = dose: 25.0 mg/kg/injection, schedule: Q04DX002 (ip), vehicle: Klucel (hydroxypropylcellulose) (HPC)
[21] = dose: 50.0 mg/kg/injection, schedule: Q04DX002 (ip), vehicle: Klucel (hydroxypropylcellulose) (HPC)
[22] = dose: 100.0 mg/kg/injection, schedule: Q04DX002 (ip), vehicle: Klucel (hydroxypropylcellulose) (HPC)
[23] = dose: 200.0 mg/kg/injection, schedule: Q04DX002 (ip), vehicle: Klucel (hydroxypropylcellulose) (HPC)
[24] = dose: 400.0 mg/kg/injection, schedule: Q04DX002 (ip), vehicle: Klucel (hydroxypropylcellulose) (HPC)

Measured: T/C

CCOc1ccccc1NC(c1ccc(OC)cc1)P(=O)(c1ccccc1)c1ccccc1 (centres undefined)
inactive: [1] 101 % of control | [2] 101 % of control | [3] 92 % of control

O=c1[nH]c2nc(SCc3ccccc3)n(Cc3ccccc3)c2c(=O)n1OS(=O)(=O)c1ccccc1
inactive: [4] 101 % of control and 108 % of control | [5] 96 % of control | [6] 94 % of control and 96 % of control | [7] 94 % of control | [8] 94 % of control and 96 % of control | [9] 91 % of control

NS(=O)(=O)c1ccccc1
inactive: dose: 100.0 mg/kg/injection, schedule: Q04DX002 (ip), vehicle: saline 105 % of control | [1] 101 % of control | dose: 200.0 mg/kg/injection, schedule: Q04DX002 (ip), vehicle: saline 105 % of control | [2] 103 % of control | dose: 400.0 mg/kg/injection, schedule: Q04DX002 (ip), vehicle: saline 109 % of control | [3] 92 % of control

CCN(C(=O)Nc1cccc(Cl)c1)c1ccccc1C
inactive: [5] 93 % of control | [7] 88 % of control

COc1ccc(OC)c(/C=C/C(=O)n2cnc3c(N)ncnc32)c1
inactive: [5] 93 % of control | [7] 93 % of control | [9] 88 % of control

NC(=O)C(N)CSCc1ccccc1 (centres undefined)
inactive: dose: 50.0 mg/kg/injection, schedule: Q01DX009 (ip), vehicle: Klucel (hydroxypropylcellulose) (HPC) 95 % of control | [10] 95 % of control | [11] 89 % of control | [12] 100 % of control | [13] 91 % of control | [14] 91 % of control

COc1cc(Nc2nc(N)ncc2N)cc(OC)c1OC
inactive: [5] 95 % of control | [7] 98 % of control | [9] 92 % of control

C/C(CCO)=N\NC(N)=S
inactive: dose: 50.0 mg/kg/injection, schedule: Q01DX001 (ip), vehicle: saline 98 % of control | [15] 98 % of control | [16] 100 % of control | [17] 92 % of control | [18] 90 % of control | [19] 101 % of control | dose: 400.0 mg/kg/injection, schedule: Q04DX003 (ip), vehicle: saline 88 % of control

Cc1cccc[c]1[Sb]([c]1ccccc1C)[c]1ccccc1C
inactive: [4] 100 % of control | [6] 96 % of control | [8] 96 % of control

CCCCCC(=O)OC1(C(C)=O)CCC2C3CCC4=CC(=O)CCC4C3CCC21C (centres undefined)
inactive: dose: 12.5 mg/kg/injection, schedule: Q04DX002 (ip), vehicle: Klucel (hydroxypropylcellulose) (HPC) 94 % of control | [20] 90 % of control | [21] 94 % of control

C=C(C)COc1ccccc1
inactive: dose: 100.0 mg/kg/injection, schedule: Q01DX005 (ip), vehicle: Klucel (hydroxypropylcellulose) (HPC) 101 % of control | [10] 100 % of control | [22] 100 % of control | dose: 200.0 mg/kg/injection, schedule: Q01DX005 (ip), vehicle: Klucel (hydroxypropylcellulose) (HPC) 108 % of control | [12] 102 % of control | [23] 100 % of control | dose: 400.0 mg/kg/injection, schedule: Q01DX005 (ip), vehicle: Klucel (hydroxypropylcellulose) (HPC) 97 % of control | [24] 107 % of control

CN(C)CCn1c2ccccc2c2ccccc21
inactive: [5] 92 % of control | [7] 92 % of control | [9] 95 % of control

O=C(N/N=C/c1ccc2c(c1)CCC2)c1ccc(S(=O)(=O)O)cc1
inactive: [1] 97 % of control | [2] 104 % of control | [3] 97 % of control

O=C1N=C(c2ccccc2)OC1C(=O)c1ccccc1 (centres undefined)
inactive: [15] 110 % of control | [17] 94 % of control

CCCCNC(=O)Nc1c(C)cccc1C
inactive: dose: 100.0 mg/kg/injection, schedule: Q01DX009 (ip), vehicle: gum acacia 99 % of control | dose: 100.0 mg/kg/injection, schedule: Q04DX003 (ip), vehicle: gum acacia 92 % of control | dose: 200.0 mg/kg/injection, schedule: Q01DX009 (ip), vehicle: gum acacia 87 % of control | dose: 200.0 mg/kg/injection, schedule: Q04DX003 (ip), vehicle: gum acacia 91 % of control | dose: 400.0 mg/kg/injection, schedule: Q01DX009 (ip), vehicle: gum acacia 87 % of control | dose: 400.0 mg/kg/injection, schedule: Q04DX003 (ip), vehicle: gum acacia 92 % of control

Nc1ncnc(N)c1NC(=O)c1cc(Br)c(OCc2ccccc2)c(Br)c1
inactive: dose: 100.0 mg/kg/injection, schedule: Q01DX001 (ip), vehicle: DMSO 95 % of control | dose: 200.0 mg/kg/injection, schedule: Q01DX001 (ip), vehicle: DMSO 95 % of control | dose: 400.0 mg/kg/injection, schedule: Q01DX001 (ip), vehicle: DMSO 95 % of control

CCC(/C=N/NC(N)=O)c1ccccc1OC (centres undefined)
inactive: [15] 96 % of control | [17] 104 % of control | [19] 109 % of control

O=C(O)CCCNCc1cc(=O)[nH]c(=O)[nH]1
inactive: [16] 101 % of control

N#Cc1ccc(N=C(N)N[N+](=O)[O-])cc1
inactive: [20] 96 % of control | [21] 104 % of control | [22] 104 % of control

NCC(=O)O.[Zn+2]
inactive: dose: 100.0 mg/kg/injection, schedule: Q01DX001 (ip), vehicle: water 97 % of control | dose: 200.0 mg/kg/injection, schedule: Q01DX001 (ip), vehicle: water 96 % of control | dose: 400.0 mg/kg/injection, schedule: Q01DX001 (ip), vehicle: water 94 % of control

CSCCSc1ncnc2nc[nH]c12
inactive: [5] 107 % of control | [7] 102 % of control | [9] 101 % of control

NC(CSS(=O)(=O)O)=NCc1cccs1
inactive: dose: 12.5 mg/kg/injection, schedule: Q01DX009 (ip), vehicle: saline with Tween-80 103 % of control | dose: 25.0 mg/kg/injection, schedule: Q01DX009 (ip), vehicle: saline with Tween-80 96 % of control

NC(N)=N/N=C/C(=N/N=C(N)N)c1ccccc1
inactive: dose: 30.0 mg/kg/injection, schedule: Q01DX Z (oral), vehicle: carboxymethylcellulose (CMC) 108 % of control | dose: 60.0 mg/kg/injection, schedule: Q01DX Z (oral), vehicle: carboxymethylcellulose (CMC) 115 % of control | dose: 120.0 mg/kg/injection, schedule: Q01DX Z (oral), vehicle: carboxymethylcellulose (CMC) 105 % of control | dose: 240.0 mg/kg/injection, schedule: Q01DX Z (oral), vehicle: carboxymethylcellulose (CMC) 103 % of control

Cc1cccc(NC(C(=O)O)c2ccccc2)c1 (centres undefined)
inactive: [22] 100 % of control | [23] 93 % of control | [24] 89 % of control

C=CCNC(C)=O
inactive: [11] 97 % of control | [16] 98 % of control | [13] 97 % of control | [18] 97 % of control | [14] 97 % of control
